Here are results for two molecules from patent US9421177B2, “Imidamide sphingosine kinase inhibitors” (University of Virginia Patent Foundation, priority 2009, dated 2016).

One data set addresses mouse SphK2 (Mus musculus (Mouse), UniProt Q9JIA7). Put plainly: Determination of Ki values, recombinant mouse SphK2 in Sf9 cell homogenates. In kind it is biochemical. The following applies: amidine HCl salt; recombinant mouse SphK2, Sf9 homogenate, 37 C, 20 minutes; read-out: SphK2 inhibitory constant (Ki). As for the experimental part:
(§1) Sphingosine kinase activity was assessed as described previously (Kharel, Y., Lee, S., Snyder, A. H., Sheasley-O'Neill, S. L., Morris, M. A., Setiady, Y., Zhu, R., Zigler, M. A., Burcin, T. L., Ley, K., Tung, K. S. K., Engelhard, V. H., Macdonald, T. L. and Lynch, K. R. Sphingosine kinase 2 is required for modulation of lymphocyte traffic by FTY720. J Biological Chemistry 280: 36865-36872 (2005)). High levels of human sphingosine kinase type 1 (mSK1) and mouse sphingosine kinase type 2 (mSK2) were expressed in Sf9 insect cells by infection with cognate baculoviruses. Crude homogenates were incubated with γ-[^32P]ATP and 10 micromolar D-erythro-sphingosine in the presence of 100 micromolar concentrations of test compounds for 20 minutes at 37 C. The product, radiolabeled S1P, was isolated by extraction into organic solvents after acidification and […] by thin layer chromatography. […]
(§2) Crude homogenates of Sf9 cells containing high levels of recombinant mouse SphK2 or human SphK1 were incubated with γ-[^32P]ATP and various concentrations (0 to 500 micromolar) of D-erythro-sphingosine for 20 minutes […] at 37 C in the presence of fixed concentration of test compound. The product, radiolabeled S1P, was isolated by extraction into organic solvents followed by thin layer chromatography, recovered and radioactivity measured by liquid scintillation counting. […]

The target of the next data set is human SphK1 (Homo sapiens (Human), UniProt Q9NYA1). Put plainly: Determination of Ki values, recombinant human SphK1 in Sf9 cell homogenates. In kind it is biochemical. As to conditions: amidine HCl salt; recombinant human SphK1, Sf9 homogenate, 37 C, 20 minutes; read-out: SphK1 inhibitory constant (Ki). On the procedure: as §1, §2
Sequence of human SphK1 (Q9NYA1 whole entry): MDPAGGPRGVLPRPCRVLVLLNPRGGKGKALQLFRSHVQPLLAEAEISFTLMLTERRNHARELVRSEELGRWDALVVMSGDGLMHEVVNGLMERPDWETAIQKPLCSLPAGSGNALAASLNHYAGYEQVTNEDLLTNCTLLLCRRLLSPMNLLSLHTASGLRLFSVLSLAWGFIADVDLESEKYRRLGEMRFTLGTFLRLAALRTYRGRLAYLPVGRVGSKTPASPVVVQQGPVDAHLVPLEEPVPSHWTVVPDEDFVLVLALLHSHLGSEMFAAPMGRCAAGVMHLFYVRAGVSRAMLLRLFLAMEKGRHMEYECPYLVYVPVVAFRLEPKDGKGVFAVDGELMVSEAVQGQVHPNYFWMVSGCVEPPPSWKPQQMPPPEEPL
Data set [1] can be described thus: Pro-drug activity: conversion of amidoxime to amidine in mice. In kind it is in vivo. The following applies: 20 mpk, IP or oral, FIG. 7B. As for the experimental part: Mice were dosed with 20 mpk of amidoxime, VPC96143, both IP and orally. S1P in plasma and organs was measured at times ASAP, 2 hrs and 24 hrs. The compound amidine, VPC96077, was also measured in plasma and organs at times ASAP, 2 hrs and 24 hrs.
Mice Numbering • 51: dosed with 20 mpk amidoxime VPC96143 administered IP. Plasma extracted ASAP and 2 hrs. Organs harvested at 2 hrs. • 52: dosed with 20 mpk amidoxime VPC96143 administered IP. Plasma extracted ASAP and 24 hrs. Organs harvested at 2 hrs. • 53: dosed with 20 mpk amidoxime VPC96143 administered orally. Plasma extracted ASAP and 2 hrs. Organs harvested at 2 hrs.

Sequence of mouse SphK2 (Q9JIA7 whole entry): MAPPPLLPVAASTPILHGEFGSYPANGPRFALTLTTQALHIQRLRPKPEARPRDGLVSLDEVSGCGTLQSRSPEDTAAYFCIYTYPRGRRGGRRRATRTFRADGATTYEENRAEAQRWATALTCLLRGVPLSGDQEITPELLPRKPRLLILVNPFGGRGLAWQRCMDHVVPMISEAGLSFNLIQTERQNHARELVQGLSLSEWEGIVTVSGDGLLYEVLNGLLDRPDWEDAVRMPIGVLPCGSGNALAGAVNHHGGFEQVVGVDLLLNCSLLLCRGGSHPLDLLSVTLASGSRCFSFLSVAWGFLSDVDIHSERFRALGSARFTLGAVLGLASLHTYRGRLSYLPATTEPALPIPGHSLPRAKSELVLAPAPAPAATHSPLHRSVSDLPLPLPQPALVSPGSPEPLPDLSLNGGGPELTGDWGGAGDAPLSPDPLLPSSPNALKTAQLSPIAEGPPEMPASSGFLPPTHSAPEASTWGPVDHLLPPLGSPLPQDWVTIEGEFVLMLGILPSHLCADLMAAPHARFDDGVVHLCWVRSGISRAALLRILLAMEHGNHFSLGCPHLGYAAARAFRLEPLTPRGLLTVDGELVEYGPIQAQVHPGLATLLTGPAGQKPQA

Consider `N/C(=N\O)C1(C(=O)Nc2ccc(CCCCCCCCCc3ccccc3)cc2)CC1` [VPC143129], for which the Ki on mouse SphK2 is over 10 µM; on human SphK1, 0.5 µM. `CCCCCCCCCCCc1ccc(C(=O)N2CCC[C@H]2/C(N)=N/O)cc1` [VPC96143]: in data set [1], the “conversion of amidoxime pro-drug to amidine congener VPC96077 (accumulation in plasma)” value is “conversion of the amidoxime to the amidine in vivo”.

The term Ki denotes a dissociation constant, usually derived from enzyme kinetics or from competition with a known ligand.
